Laboratory results published in patent US20260206761A1, “HETEROARYL-TRIAZOLE COMPOUNDS AS PESTICIDES” (Bayer Aktiengesellschaft, priority 2019, published 2026).

Legend:
Assay type in all cases: in vivo
[1] = test system: larvae of the banded cucumber beetle (Diabrotica balteata); experiment: Diabrotica balteata spray test; details: 168 h, after 7 days, read-out: activity (efficacy: seedlings grown); for pest or weed control at 100 g/ha: application rate 100 g/ha (=32 pg/well); for pest or weed control at 500 g/ha: application rate 500 g/ha (=160 pg/well)
Procedure, shortened: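 Wheat seedlings, germinated 1 day on agar (5 seeds/well), sprayed with active compound in acetone/DMF diluted in water containing 1000 ppm emulsifier, then infested with 10-20 D. balteata larvae. Efficacy (%) scored after 7 days: 100% = seedlings grown as untreated uninfested control, 0% = no seedlings grown.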

[2] = test system: Aedes aegypti strain MONHEIM; experiment: Aedes aegypti test (AEDSAE surface treatment & contact assay); details: 24 hours after contact, read-out: efficacy (mortality); for mortality at 4 mg/m2: surface concentration 4 mg/m^2, exposure 30 minutes; for mortality at 20 mg/m2: surface concentration 20 mg/m^2, exposure 30 minutes
Procedure, shortened: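 Compound in acetone (2 mg/ml) with 2000 ppm RME pipetted onto glazed tile and dried; adult Aedes aegypti MONHEIM exposed 30 min. Percent mortality scored 24 h after contact.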

[3] = test system: adult brown dog ticks (Rhipicephalus sanguineus); experiment: Rhipicephalus sanguineus in-vitro contact test, adult brown dog ticks; details: after 48 hours, read-out: activity (efficacy: ticks dead or moribund); for pest or weed control at 100 g/ha: application rate 1 pg/cm^2 (=100 g/ha); for pest or weed control at 5 µg/cm2, 500 g/ha: application rate 5 μg/cm^2 (=500 g/ha)
Procedure, shortened: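 Compound in acetone was coated onto inner walls of glass tubes by rotation (2 h, 30 rpm); 900 ppm gives 5 μg/cm^2. After drying, 5-10 adult ticks were enclosed per tube at room temperature; after 48 h, heat-escape test at 45-50° C scored dead/moribund ticks as % efficacy.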

[4] = test system: Musca domestica strain WHO-N; experiment: Musca domestica test (MUSCDO surface treatment & contact assay); details: 24 hours after contact, read-out: efficacy (mortality); for mortality at 20 mg/m2: surface concentration 20 mg/m^2, exposure 30 minutes; for mortality at 4 mg/m2: surface concentration 4 mg/m^2, exposure 30 minutes
Procedure, shortened: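 Compound dissolved at 2 mg/ml in acetone with 2000 ppm rapeseed oil methyl ester and pipetted onto a glazed tile. After the acetone evaporated, adult WHO-N flies were exposed to the dried surface for 30 min, with % mortality scored 24 h after contact.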

[5] = test system: Anopheles funestus strain FUMOZ-R; experiment: Anopheles funestus test (ANPHFU surface treatment & contact assay); details: 24 hours after contact, read-out: efficacy (mortality); for mortality at 4 mg/m2: surface concentration 4 mg/m^2, exposure 30 minutes; for mortality at 20 mg/m2: surface concentration 20 mg/m^2, exposure 30 minutes
Procedure, shortened: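 Compound dissolved in acetone at 2 mg/ml with 2000 ppm RME, pipetted onto glazed tile; acetone evaporated. Adult FUMOZ-R mosquitoes exposed to dried surface for 30 min. Percent mortality scored 24 h after contact.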

[6] = test system: Culex quinquefasciatus strain P00; experiment: Culex quinquefasciatus test (CULXFA surface treatment & contact assay); details: 24 hours after contact, read-out: efficacy (mortality); for mortality at 4 mg/m2: surface concentration 4 mg/m^2, exposure 30 minutes; for mortality at 20 mg/m2: surface concentration 20 mg/m^2, exposure 30 minutes
Procedure, shortened: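 Compound in acetone (2 mg/ml) with 2000 ppm rapeseed oil methyl ester, dried onto glazed tile. Adult mosquitoes exposed to the treated surface for 30 min. Percent mortality scored 24 h after contact.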

| Compound | pest or weed control at 100 g/ha [1] | mortality at 4 mg/m2 [2] | mortality at 20 mg/m2 [2] | pest or weed control at 100 g/ha [3] | pest or weed control at 5 µg/cm2, 500 g/ha [3] | mortality at 20 mg/m2 [4] | mortality at 4 mg/m2 [5] | mortality at 20 mg/m2 [5] | mortality at 4 mg/m2 [6] | mortality at 20 mg/m2 [6] | mortality at 4 mg/m2 [4] | pest or weed control at 500 g/ha [1] |
| --- | --- | --- | --- | --- | --- | --- | --- | --- | --- | --- | --- | --- |
| CC(C)c1nc([C@H](C)NC(=O)c2cc(OC(F)(F)F)cc(C3CC3)c2)n(-c2ccc(C#N)cn2)n1 [I-23] | 80% | 80 to 100% | 80 to 100% | 100% | 100% | 80 to 100% | 80 to 100% | 80 to 100% | – | – | – | – |
| C[C@H](NC(=O)c1cc(Cl)cc(S(=O)(=O)C2CC2)c1)c1nc(C2CC2)nn1-c1ncc(Cl)cn1 [I-25] | 100% | 80 to 100% | 80 to 100% | – | – | 80 to 100% | – | – | 80 to 100% | 80 to 100% | 80 to 100% | – |
| CC(NC(=O)c1cc(C(F)(F)F)cc(S(C)(=O)=O)c1)c1nc(Cl)nn1-c1ncccn1 (stereo not shown) [I-30] | 100% | 80 to 100% | 80 to 100% | 100% | 100% | 80 to 100% | 80 to 100% | 80 to 100% | – | – | – | – |
| CSc1cc(C#N)cc(C(=O)N[C@@H](C)c2ncnn2-c2ccc(C#N)cn2)c1 [II-3] | 100% | 80 to 100% | 80 to 100% | – | – | – | – | 80 to 100% | 80 to 100% | 80 to 100% | – | 100% |
| C[C@H](NC(=O)c1cc(C#N)cc([S+](C)[O-])c1)c1ncnn1-c1ccc(C#N)cn1 (stereo partly shown) [II-12] | 100% | 80 to 100% | 80 to 100% | – | – | – | 80 to 100% | 80 to 100% | 80 to 100% | 80 to 100% | – | 100% |
| C[C@H](NC(=O)c1cc(C(F)(F)F)cc(S(C)(=O)=O)c1)c1ncnn1-c1ccc(Cl)cn1 [II-16] | 100% | 80 to 100% | 80 to 100% | – | – | – | 80 to 100% | – | 80 to 100% | – | – | 100% |
| C[C@H](NC(=O)c1cc(Cl)cc(S(=O)(=O)C(F)F)c1)c1ncnn1-c1ccc(C#N)cn1 [II-17] | 100% | 80 to 100% | 80 to 100% | – | – | – | 80 to 100% | – | 80 to 100% | 80 to 100% | – | 100% |
| C[C@H](NC(=O)c1cc(Cl)cc([S+]([O-])C(F)F)c1)c1ncnn1-c1ccc(C#N)cn1 (stereo partly drawn) [II-18, 3-chloro-N-{(1S)-1-[1-(5-cyanopyridin-2-yl)-1H-1,2,4-triazol-5-yl]ethyl}-5-[(difluoro-methyl)sulfinyl]benzamide] | 100% | 80 to 100% | 80 to 100% | – | – | 80 to 100% | – | – | 80 to 100% | 80 to 100% | – | 100% |
| C[C@H](NC(=O)c1cc(OC(F)(F)F)cc(C2CC2)c1)c1ncnn1-c1ccccn1 [II-22] | 100% | 80 to 100% | 80 to 100% | – | – | 80 to 100% | – | – | – | 80 to 100% | 80 to 100% | 100% |
| C[C@H](NC(=O)c1cc(C2CC2)cc(C(F)(F)F)c1)c1ncnn1-c1ccc(C#N)cn1 [II-26] | 100% | 80 to 100% | 80 to 100% | 100% | 100% | 80 to 100% | – | – | – | – | 80 to 100% | 100% |
| C[C@H](NC(=O)c1cc(C#N)cc(S(C)(=O)=O)c1)c1ncnn1-c1ccc(Cl)cn1 [II-29] | – | 80 to 100% | 80 to 100% | 80% | 100% | – | – | – | 80 to 100% | – | – | 100% |
| C[C@H](NC(=O)c1cc(C(F)(F)F)cc(S(=O)(=O)C2CC2)c1)c1ncnn1-c1ccc(C#N)cn1 [II-32] | 100% | 80 to 100% | 80 to 100% | 100% | 100% | 80 to 100% | – | – | 80 to 100% | 80 to 100% | 80 to 100% | 100% |
| Cc1nc([C@H](C)NC(=O)c2cc(Cl)cc(S(=O)(=O)C(F)F)c2)n(-c2ccc(C#N)cn2)n1 [II-35] | 100% | 80 to 100% | 80 to 100% | – | 80% | 80 to 100% | – | – | – | – | 80 to 100% | 100% |
| Cc1nc([C@H](C)NC(=O)c2cc(Cl)cc(S(=O)(=O)C(F)F)c2)n(-c2ccc(Cl)cn2)n1 [II-36] | 100% | 80 to 100% | 80 to 100% | – | 80% | – | – | – | – | – | 80 to 100% | 100% |
| Cc1nc([C@H](C)NC(=O)c2cc(Cl)cc(C3(C#N)CC3)c2)n(-c2ccc(C#N)cn2)n1 [II-38] | 100% | 80 to 100% | – | 100% | 100% | 80 to 100% | – | – | – | – | 80 to 100% | – |
| C[C@H](NC(=O)c1cc(Cl)cc(S(=O)(=O)C(F)(F)F)c1)c1ncnn1-c1ncc(OC(F)F)cn1 [II-43] | 100% | 80 to 100% | 80 to 100% | – | – | – | – | – | 80 to 100% | – | – | – |
| Cc1nc([C@H](C)NC(=O)c2cc(C(F)(F)F)cc(C3(C#N)CC3)c2)n(-c2ccc(Cl)cn2)n1 [II-50] | 100% | 80 to 100% | 80 to 100% | 100% | 100% | 80 to 100% | – | – | – | – | – | – |
| Cc1nc([C@H](C)NC(=O)c2cc(C(F)(F)F)cc(S(C)(=O)=O)c2)n(-c2ccc(C#N)cn2)n1 [II-52] | 100% | 80 to 100% | 80 to 100% | 100% | 100% | 80 to 100% | – | – | – | – | 80 to 100% | – |
| C[C@H](NC(=O)c1cc(C#N)cc(C2CC2)c1)c1ncnn1-c1ncccn1 [II-54] | 100% | 80 to 100% | 80 to 100% | 100% | – | – | – | 80 to 100% | – | – | – | – |
